Measurements taken from US10174016B2 (BAYER AKTIENGESELLSCHAFT, priority 2014, dated 2019).
pIC50: −log10 of the molar value.

Columns and labels:
[1] = molecular target: human P2X3 receptor (Homo sapiens (Human), UniProt P56373); experiment: Intracellular calcium measurement (FLIPR, Fluo-4) of antagonist activity at human P2X3 receptors; format: cell-based; conditions: human P2X3, FLIPR calcium assay, agonist α,β-Me-ATP; read-out: hP2X3 IC50
Procedure, shortened: (§1)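 Cells expressing human P2X3 or P2X2/3, loaded with Fluo-4, preincubated 30 min at 37° C. with compound (1% DMSO final), then challenged with α,β-Me-ATP at its EC80. Peak FLIPR fluorescence over 90 sec gave % response; IC50, maximal inhibition and Hill slope from triplicates.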

[2] = molecular target: human P2X2/3 receptor (Homo sapiens (Human), UniProt P56373+Q9UBL9); experiment: Intracellular calcium measurement (FLIPR, Fluo-4) of antagonist activity at human P2X2/3 receptors; format: cell-based; conditions: human P2X2/3, FLIPR calcium assay, agonist α,β-Me-ATP; read-out: hP2X2/3 IC50
Procedure, shortened: as §1

human P2X3 receptor, sequence (P56373 whole entry): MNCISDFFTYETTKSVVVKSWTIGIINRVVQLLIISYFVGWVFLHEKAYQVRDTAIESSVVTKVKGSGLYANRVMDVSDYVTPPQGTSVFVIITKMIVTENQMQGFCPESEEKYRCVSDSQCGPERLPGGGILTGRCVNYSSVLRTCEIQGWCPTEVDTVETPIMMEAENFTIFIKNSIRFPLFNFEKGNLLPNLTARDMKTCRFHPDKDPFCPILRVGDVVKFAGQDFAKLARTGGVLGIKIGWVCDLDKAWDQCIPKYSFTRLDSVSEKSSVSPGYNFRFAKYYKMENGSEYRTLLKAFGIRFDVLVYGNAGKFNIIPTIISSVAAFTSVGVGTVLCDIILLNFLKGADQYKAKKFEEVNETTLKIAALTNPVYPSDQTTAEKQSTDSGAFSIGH
human P2X2/3 receptor, sequence (P56373 whole entry): as above
human P2X2/3 receptor, sequence (Q9UBL9 whole entry): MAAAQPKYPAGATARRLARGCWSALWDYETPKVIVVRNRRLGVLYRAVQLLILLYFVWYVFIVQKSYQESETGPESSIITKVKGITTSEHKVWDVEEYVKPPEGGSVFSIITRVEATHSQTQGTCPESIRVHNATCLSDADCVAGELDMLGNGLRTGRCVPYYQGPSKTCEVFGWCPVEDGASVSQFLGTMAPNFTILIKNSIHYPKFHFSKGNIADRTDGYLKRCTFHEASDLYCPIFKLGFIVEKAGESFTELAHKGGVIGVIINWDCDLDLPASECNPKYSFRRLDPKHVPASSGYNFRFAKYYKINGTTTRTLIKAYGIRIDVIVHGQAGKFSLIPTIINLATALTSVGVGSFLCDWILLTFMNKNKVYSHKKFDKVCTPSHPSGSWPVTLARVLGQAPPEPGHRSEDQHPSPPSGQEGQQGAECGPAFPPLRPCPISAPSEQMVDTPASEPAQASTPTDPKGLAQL

| pIC50 [1] | pIC50 [2] | Compound |
| --- | --- | --- |
| 6.73 | ≤ 5.00 | Cc1cnc(CNC(=O)c2cc(OC[C@H]3CCOC3)cc(-c3ncc(C)s3)c2)cn1 [Example 67, N-[(5-Methylpyrazin-2-yl)methyl]-3-(5-methyl-1,3-thiazol-2-yl)-5-[(3S)-tetrahydrofuran-3-ylmethoxy]benzamide] |
| 7.36 | 5.79 | Cc1cnc([C@@H](C)NC(=O)c2cc(OC[C@H]3CCOC3)cc(-c3ncc(C)s3)c2)cn1 [Example 68, N-[(1R)-1-(5-Methylpyrazin-2-yl)ethyl]-3-(5-methyl-1,3-thiazol-2-yl)-5-[(3S)-tetrahydrofuran-3-ylmethoxy]benzamide] |
| 8.52 | 7.11 | Cc1cnc(-c2cc(OC[C@H]3CCOC3)cc(C(=O)N[C@H](C)c3cnc(C(F)(F)F)nc3)c2)s1 [Example 70, 3-(5-Methyl-1,3-thiazol-2-yl)-5-[(3S)-tetrahydrofuran-3-ylmethoxy]-N-[(1R)-1-[2-(trifluoromethyl)pyrimidin-5-yl]ethyl]benzamide] |
| 7.82 | 6.50 | Cc1ccc([C@@H](C)NC(=O)c2cc(OC[C@H]3CCOC3)cc(-c3ncc(C)s3)c2)nn1 [Example 71, N-[(1R)-1-(6-Methylpyridazin-3-yl)ethyl]-3-(5-methyl-1,3-thiazol-2-yl)-5-[(3S)-tetrahydrofuran-3-ylmethoxy]benzamide] |
| 7.96 | 6.48 | Cc1cnc(-c2cc(OC[C@H]3CCOC3)cc(C(=O)N[C@H](C)c3ccc(C(F)(F)F)nn3)c2)s1 [Example 72, 3-(5-Methyl-1,3-thiazol-2-yl)-5-[(3S)-tetrahydrofuran-3-ylmethoxy]-N-[(1R)-1-[6-(trifluoromethyl)pyridazin-3-yl]ethyl]benzamide] |
| 8.40 | 7.00 | Cc1cnc(-c2cc(OC[C@@H]3CCOC3)cc(C(=O)N[C@H](C)c3cnc(C(F)(F)F)nc3)c2)s1 [Example 73, 3-(5-Methyl-1,3-thiazol-2-yl)-5-[(3R)-tetrahydrofuran-3-ylmethoxy]-N-[(1R)-1-[2-(trifluoromethyl)pyrimidin-5-yl]ethyl]benzamide] |
| 7.85 | 5.96 | Cc1cnc([C@@H](C)NC(=O)c2cc(OC[C@@H]3CCOC3)cc(-c3ncc(C)s3)c2)cn1 [Example 74, N-[(1R)-1-(5-Methylpyrazin-2-yl)ethyl]-3-(5-methyl-1,3-thiazol-2-yl)-5-[(3R)-tetrahydrofuran-3-ylmethoxy]benzamide] |
| 7.42 | 5.18 | Cc1ccc(CNC(=O)c2cc(OC[C@@H]3CCOC3)cc(-c3ncc(C)s3)c2)nn1 [Example 75, N-[(6-Methylpyridazin-3-yl)methyl]-3-(5-methyl-1,3-thiazol-2-yl)-5-[(3R)-tetrahydrofuran-3-ylmethoxy]benzamide] |
| 6.70 | 5.24 | Cc1cnc(CNC(=O)c2cc(OC[C@@H]3CCOC3)cc(-c3ncc(C)s3)c2)cn1 [Example 76, N-[(5-Methylpyrazin-2-yl)methyl]-3-(5-methyl-1,3-thiazol-2-yl)-5-[(3R)-tetrahydrofuran-3-ylmethoxy]benzamide] |
| 8.00 | 6.74 | Cc1ccc([C@@H](C)NC(=O)c2cc(OC[C@@H]3CCOC3)cc(-c3ncc(C)s3)c2)nn1 [Example 77, N-[(1R)-1-(6-Methylpyridazin-3-yl)ethyl]-3-(5-methyl-1,3-thiazol-2-yl)-5-[(3R)-tetrahydrofuran-3-ylmethoxy]benzomide] |
| 8.22 | 7.08 | Cc1cnc(-c2cc(OC[C@@H]3CCOC3)cc(C(=O)NC(C)c3ncc(Cl)cc3F)c2)s1 (stereo partly drawn) [Example 78, N-[1-(5-Chloro-3-fluoropyridin-2-yl)ethyl]-3-(5-methyl-1,3-thiazol-2-yl)-5-[(3R)-tetrahydrofuran-3-ylmethoxy]benzamide] |
| 8.05 | 6.38 | Cc1cnc(-c2cc(OC[C@@H]3CCOC3)cc(C(=O)N[C@H](C)c3ccc(C(F)(F)F)nn3)c2)s1 [Example 79, 3-(5-Methyl-1,3-thiazol-2-yl)-5-[(3R)-tetrahydrofuran-3-ylmethoxy]-N-[(1R)-1-[6-(trifluoromethyl)pyridazin-3-yl]ethyl]benzamide] |
| 7.92 | 6.47 | Cc1cnc(-c2cc(OC3CCOCC3)cc(C(=O)NC(C)c3ncc(F)cc3Cl)c2)s1 (stereo not shown) [Example 80, N-[1-(3-Chloro-5-fluoropyridin-2-yl)ethyl]-3-(5-methyl-1,3-thiazol-2-yl)-5-(tetrahydro-2H-pyran-4-yloxy)benzamide] |
| 8.52 | 7.47 | Cc1cnc(-c2cc(OC3CCOCC3)cc(C(=O)NC(C)c3ncc(Cl)cc3F)c2)s1 (stereo not shown) [Example 81, N-[1-(5-Chloro-3-fluoropyridin-2-yl)ethyl]-3-(5-methyl-1,3-thiazol-2-yl)-5-(tetrahydro-2H-pyran-4-yloxy)benzamide] |
| 7.55 | 6.42 | Cc1ccc(CNC(=O)c2cc(OC3CCOCC3)cc(-c3ncc(C)s3)c2)nn1 [Example 82, N-[(6-Methylpyridazin-3-yl)methyl]-3-(5-methyl-1,3-thiazol-2-yl)-5-(tetrahydro-2H-pyran-4-yloxy)benzamide] |
| 6.90 | 5.93 | Cc1cnc(CNC(=O)c2cc(OC3CCOCC3)cc(-c3ncc(C)s3)c2)cn1 [Example 83, N-[(5-Methylpyrazin-2-yl)methyl]-3-(5-methyl-1,3-thiazol-2-yl)-5-(tetrahydro-2H-pyran-4-yloxy)benzamide] |
| 8.00 | 7.44 | Cc1cnc(-c2cc(OC3CCOCC3)cc(C(=O)N[C@H](C)c3cnc(C(F)(F)F)nc3)c2)s1 [Example 85, 3-(5-Methyl-1,3-thiazol-2-yl)-5-(tetrahydro-2H-pyran-4-yloxy)-N-{(1R)-1-[2-(trifluoromethyl)pyrimidin-5-yl]ethyl}benzamide] |
| 7.92 | 6.84 | COc1ccc([C@@H](C)NC(=O)c2cc(OC3CCOCC3)cc(-c3ncc(C)s3)c2)cn1 [Example 86, N-[(1R)-1-(6-Methoxypyridin-3-yl)ethyl]-3-(5-methyl-1,3-thiazol-2-yl)-5-(tetrahydro-2H-pyran-4-yloxy)benzamide] |
| 7.82 | 6.92 | Cc1ccc([C@@H](C)NC(=O)c2cc(OC3CCOCC3)cc(-c3ncc(C)s3)c2)nn1 [Example 87, N-[(1R)-1-(6-Methylpyridazin-3-yl)ethyl]-3-(5-methyl-1,3-thiazol-2-yl)-5-(tetrahydro-2H-pyran-4-yloxy)benzamide] |
| 7.52 | 6.66 | COc1ccc(CNC(=O)c2cc(OC3CCOCC3)cc(-c3ncc(C)s3)c2)nn1 [Example 88, N-[(6-Methoxypyridazin-3-yl)methyl]-3-(5-methyl-1,3-thiazol-2-yl)-5-(tetrahydro-2H-pyran-4-yloxy)benzamide] |
| 6.95 | 6.15 | CC[C@@H](NC(=O)c1cc(OC2CCOCC2)cc(-c2ncc(C)s2)c1)c1cnc(C(F)(F)F)nc1 [Example 90, 3-(5-Methyl-1,3-thiazol-2-yl)-5-(tetrahydro-2H-pyran-4-yloxy)-N-{(1R)-1-[2-(trifluoromethyl)pyrimidin-5-yl]propyl}benzamide] |
| 7.72 | 6.88 | Cc1ccc([C@@H](C)NC(=O)c2cc(OC3CCOCC3)cc(-c3ncc(C)s3)c2)cn1 [Example 91, N-[(1R)-1-(6-Methylpyridin-3-yl)ethyl]-3-(5-methyl-1,3-thiazol-2-yl)-5-(tetrahydro-2H-pyran-4-yloxy)benzamide] |
| 7.62 | 6.50 | Cc1cnc(-c2cc(OC3CCOCC3)cc(C(=O)N[C@H](C)c3nnc(C)s3)c2)s1 [Example 92, N-[(1R)-1-(5-Methyl-1,3,4-thiadiazol-2-yl)ethyl]-3-(5-methyl-1,3-thiazol-2-yl)-5-(tetrahydro-2H-pyran-4-yloxy)benzamide] |
| 8.10 | 6.41 | Cc1ccc(CNC(=O)c2cc(OCC3CCOCC3)cc(-c3ncc(C)s3)c2)nn1 [Example 93, N-[(6-Methylpyridazin-3-yl)methyl]-3-(5-methyl-1,3-thiazol-2-yl)-5-(tetrahydro-2H-pyran-4-ylmethoxy)benzamide] |
| 8.15 | 6.88 | Cc1cnc([C@@H](C)NC(=O)c2cc(OCC3CCOCC3)cc(-c3ncc(C)s3)c2)cn1 [Example 94, N-[(1R)-1-(5-Methylpyrazin-2-yl)ethyl]-3-(5-methyl-1,3-thiazol-2-yl)-5-(tetrahydro-2H-pyran-4-ylmethoxy)benzamide] |
| 8.70 | 6.89 | Cc1cnc(-c2cc(OCC3CCOCC3)cc(C(=O)NC(C)c3ncc(Cl)cc3F)c2)s1 (stereo not shown) [Example 95, N-[1-(5-Chloro-3-fluoropyridin-2-yl)ethyl]-3-(5-methyl-1,3-thiazol-2-yl)-5-(tetrahydro-2H-pyran--4-ylmethoxy)benzamide] |
| 7.74 | 5.97 | Cc1cnc(-c2cc(OCC3CCOCC3)cc(C(=O)NC(C)c3ncc(F)cc3Cl)c2)s1 (stereo not shown) [Example 96, N-[1-(3-Chloro-5-fluoropyridin-2-yl)ethyl]-3-(5-methyl-1,3-thiazol-2-yl)-5-(tetrahydro-2H-pyran-4-ylmethoxy)benzamide] |
| 7.82 | 5.77 | Cc1cnc(CNC(=O)c2cc(OCC3CCOCC3)cc(-c3ncc(C)s3)c2)cn1 [Example 97, N-[(5-Methylpyrazin-2-yl)methyl]-3-(5-methyl-1,3-thiazol-2-yl)-5-(tetrahydro-2H-pyran-4-ylmethoxy)benzamide] |
| 9.00 | 7.72 | Cc1cnc(-c2cc(OCC3CCOCC3)cc(C(=O)N[C@H](C)c3cnc(C(F)(F)F)nc3)c2)s1 [Example 98, 3-(5-Methyl-1,3-thiazol-2-yl)-5-(tetrahydro-2H-pyran-4-ylmethoxy)-N-[(1R)-1-[2-(trifluoromethyl)pyrimidin-5-yl]ethyl]benzamide] |
